{
  "source": "ChEMBL document CHEMBL5385865",
  "about": "“Discovery and optimization of 2-(trifluoromethyl)benzimidazole derivatives as novel ferroptosis inducers in vitro and in vivo” (Eur J Med Chem, 2023)",
  "key": {"[1]": {"system": "HT-1080", "assay": "Induction of ferroptosis in human HT-1080 cells assessed as cell death at 5 uM incubated for 24 hrs in presence of Fer-1 by morphology based microscopy", "type": "functional"}, "[2]": {"system": "MDA-MB-231", "assay": "Lethality in human MDA-MB-231 cells assessed as decrease in cell viability at 10 uM incubated for 48 hrs by MTT assay", "type": "functional, cell-based"}, "[3]": {"system": "HT-1080", "assay": "Induction of ferroptosis in human HT-1080 cells assessed as decrease in GSH level incubated for 12 hrs by DTNB method", "type": "functional, cell-based", "details": "dose 0.5-5 µM"}, "[4]": {"system": "DU-145", "assay": "Lethality in human DU-145 cells assessed as decrease in cell viability at 10 uM incubated for 48 hrs by MTT assay", "type": "functional, cell-based"}, "[5]": {"system": "HT-1080", "assay": "Induction of ferroptosis in human HT-1080 cells assessed as cell death at 10 uM incubated for 24 hrs in presence of Fer-1 by MTT assay", "type": "functional, cell-based"}, "[6]": {"system": "HT-1080", "assay": "Induction of ferroptosis in human HT-1080 cells assessed as increase in lipid ROS accumulation at 5 uM incubated for 10 hrs in presence of Fer-1 by BODIPY-C11 probe based confocal laser scanning microscopy", "type": "functional, cell-based"}, "[7]": {"target": "T1, Phospholipid hydroperoxide glutathione peroxidase GPX4 (Homo sapiens) (UniProt P36969)", "T1 sequence (whole entry)": "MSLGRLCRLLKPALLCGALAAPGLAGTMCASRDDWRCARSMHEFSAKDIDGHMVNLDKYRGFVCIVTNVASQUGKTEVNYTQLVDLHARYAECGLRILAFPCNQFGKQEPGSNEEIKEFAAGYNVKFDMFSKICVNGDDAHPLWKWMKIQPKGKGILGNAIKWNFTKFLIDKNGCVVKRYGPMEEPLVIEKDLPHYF", "assay": "Inhibition of GPX4 in human HT-1080 cells at 10 to 40 uM incubated for 12 hrs", "type": "cell-based", "details": "dose 10-40 µM"}, "[8]": {"system": "HT-1080", "assay": "Induction of ferroptosis in human HT-1080 cells assessed as cell death at 10 uM incubated for 24 hrs in presence of Trolox by MTT assay", "type": "functional, cell-based"}, "[9]": {"system": "HepG2", "assay": "Induction of apoptosis in human HepG2 cells xenografted in BALB/c nude mouse at 15 to 30 mg/kg, ip administered every other day for 21 days by TUNEL staining based IHC analysis", "type": "functional, organism-based", "details": "dose 15-30 mg/kg, time 21.0 day"}, "[10]": {"assay": "Toxicity in BALB/c nude mouse xenografted with human HepG2 cells assessed as effect on serum ALP level at 15 to 30 mg/kg, ip administered every other day for 21 days", "type": "organism-based", "details": "in vivo, 504 h, dose 15-30 mg/kg, time 21 day"}, "[11]": {"system": "HT-1080", "assay": "Induction of ferroptosis in human HT-1080 cells assessed as cell death at 5 uM incubated for 6 hrs in presence of ferric ammonium citrate by fluorescent microscopy", "type": "functional, cell-based"}, "[12]": {"system": "HT-1080", "assay": "Induction of ferroptosis in human HT-1080 cells assessed as cell death at 10 uM incubated for 24 hrs in presence of DFO by MTT assay", "type": "functional, cell-based"}, "[13]": {"assay": "Toxicity in human HEK293T cells upto 20 uM incubated for 48 hrs by MTT assay", "type": "cell-based", "details": "hek-293t"}, "[14]": {"assay": "Toxicity in BALB/c nude mouse xenografted with human HepG2 cells assessed as effect on serum AST level at 15 to 30 mg/kg, ip administered every other day for 21 days", "type": "organism-based", "details": "in vivo, 504 h, dose 15-30 mg/kg, time 21 day"}, "[15]": {"system": "HT-1080", "assay": "Lethality in human HT-1080 cells assessed as inhibition of cell viability incubated for 24 hrs by MTT assay", "type": "functional, cell-based", "details": "HT-1080, 24 h"}, "[16]": {"system": "HT-1080", "assay": "Induction of ferroptosis in human HT-1080 cells assessed as increase in CHAC1 mRNA level incubated for 6 hrs by qPCR analysis", "type": "functional, cell-based", "details": "dose 0.5-5 µM"}, "[17]": {"system": "HT-1080", "assay": "Induction of ferroptosis in human HT-1080 cells assessed as shrinkage of mitochondria at 5 uM incubated for 24 hrs by TEM analysis", "type": "functional, cell-based"}, "[18]": {"system": "HT-1080", "assay": "Effect on GPX4 mRNA level in human HT-1080 cells at 0.5 to 5 uM incubated for 18 hrs by qPCR analysis", "type": "functional, cell-based", "details": "dose 0.5-5 µM"}, "[19]": {"system": "HT-1080", "assay": "Induction of ferroptosis in human HT-1080 cells assessed as cell death at 5 uM incubated for 6 hrs in presence of ferric citrate by fluorescent microscopy", "type": "functional, cell-based"}, "[20]": {"system": "A-375", "assay": "Lethality in human A-375 cells assessed as decrease in cell viability at 10 uM incubated for 48 hrs by MTT assay", "type": "functional, cell-based"}, "[21]": {"system": "HepG2", "assay": "Induction of ferroptosis in human HepG2 cells xenografted in BALB/c nude mouse assessed as increase in 4-HNE level administered intraperitoneally every other day for 21 days", "type": "functional", "details": "dose 15-30 mg/kg, route ip, time 21.0 day"}, "[22]": {"system": "HT-1080", "assay": "Induction of ferroptosis in human HT-1080 cells assessed as increase in cytosolic ROS accumulation incubated for 10 hrs by H2DCFDA probe based flow cytometry", "type": "functional, cell-based", "details": "dose 0.5-5 µM"}, "[23]": {"system": "HT-1080", "assay": "Induction of ferroptosis in human HT-1080 cells assessed as cell death at 5 uM incubated for 24 hrs in presence of DFO by morphology based microscopy", "type": "functional"}, "[24]": {"system": "HeLa", "assay": "Lethality in human HeLa cells assessed as inhibition of cell viability incubated for 24 hrs by MTT assay", "type": "functional, cell-based"}, "[25]": {"assay": "Toxicity in human L02 cells upto 20 uM incubated for 48 hrs by MTT assay", "type": "cell-based", "details": "l02, 48 h"}, "[26]": {"system": "HT-1080", "assay": "Induction of ferroptosis in human HT-1080 cells assessed as increase in lipid ROS accumulation at 0.5 to 5 uM incubated for 10 hrs by flow cytometry", "type": "functional, cell-based", "details": "dose 0.5-5 µM"}, "[27]": {"assay": "Toxicity in BALB/c nude mouse xenografted with human HepG2 cells assessed as histological change in kidney at 15 to 30 mg/kg, ip administered every other day for 21 days by H and E staining based analysis", "type": "organism-based", "details": "in vivo, 504 h, dose 15-30 mg/kg, time 21 day"}, "[28]": {"assay": "Toxicity in BALB/c nude mouse xenografted with human HepG2 cells assessed as histological change in liver at 15 to 30 mg/kg, ip administered every other day for 21 days by H and E staining based analysis", "type": "organism-based", "details": "in vivo, 504 h, dose 15-30 mg/kg, time 21 day"}, "[29]": {"assay": "Toxicity in BALB/c nude mouse xenografted with human HepG2 cells assessed as effect on serum CK level at 15 to 30 mg/kg, ip administered every other day for 21 days", "type": "organism-based", "details": "in vivo, 504 h, dose 15-30 mg/kg, time 21 day"}, "[30]": {"system": "A-375", "assay": "Lethality in human A-375 cells assessed as decrease in cell viability at 10 uM incubated for 48 hrs in presence of DFO by MTT assay", "type": "functional, cell-based"}, "[31]": {"assay": "Metabolic stability in rat liver microsomes assessed as intrinsic clearance measured per mg protein at 1 uM in presence of NADPH by LC-MS analysis", "type": "ADME, Microsome", "details": "read-out: CLH"}, "[32]": {"system": "786-0", "assay": "Lethality in human 786-0 cells assessed as decrease in cell viability at 10 uM incubated for 48 hrs in presence of DFO by MTT assay", "type": "functional, cell-based"}, "[33]": {"system": "HT-1080", "assay": "Induction of ferroptosis in human HT-1080 cells assessed as increase in lipid ROS accumulation at 5 uM incubated for 10 hrs by BODIPY-C11 probe based confocal laser scanning microscopy", "type": "functional, cell-based"}, "[34]": {"system": "MDA-MB-231", "assay": "Lethality in human MDA-MB-231 cells assessed as inhibition of cell viability incubated for 24 hrs by MTT assay", "type": "functional, cell-based", "details": "MDA-MB-231, 24 h"}, "[35]": {"system": "HT-1080", "assay": "Induction of ferroptosis in human HT-1080 cells overexpressing SLC7A11 assessed as increase in lipid peroxidation by BODIPY-C11 probe based confocal laser scanning microscopy", "type": "functional, cell-based"}},
  "note": "Activity calls are given as the source filed them. The calls are words filed in the database; no cut-off is given here.",
  "data": [
    {"smiles": "CN(C)S(=O)(=O)c1ccc(N2CCC(Cn3c(C(F)(F)F)nc4ccccc43)CC2)cc1", "values": [
      {"measurement": "Activity", "setting": "[1]", "result": "inactive"},
      {"measurement": "Activity", "setting": "[2]", "result": "Active"},
      {"measurement": "Activity", "setting": "[3]", "result": "Dose-Dependent Effect"},
      {"measurement": "Activity", "setting": "[4]", "result": "Active"},
      {"measurement": "Activity", "setting": "[5]", "result": "inactive"},
      {"measurement": "Activity", "setting": "[6]", "result": "inactive"},
      {"measurement": "inhibition", "setting": "[7]", "result": "inactive"},
      {"measurement": "Activity", "setting": "[8]", "result": "inactive"},
      {"measurement": "Activity", "setting": "[9]", "result": "inactive"},
      {"measurement": "Activity", "setting": "[10]", "result": "Non-Toxic"},
      {"measurement": "Activity", "setting": "[11]", "result": "Active"},
      {"measurement": "Activity", "setting": "[12]", "result": "inactive"},
      {"measurement": "Activity", "setting": "[13]", "result": "Toxic"},
      {"measurement": "Activity", "setting": "[14]", "result": "Non-Toxic"},
      {"measurement": "IC50", "setting": "[15]", "result": 1260, "unit": "nM"},
      {"measurement": "Activity", "setting": "[16]", "result": "Dose-Dependent Effect"},
      {"measurement": "Activity", "setting": "[17]", "result": "Active"},
      {"measurement": "Activity", "setting": "[18]", "result": "inactive"},
      {"measurement": "Activity", "setting": "[19]", "result": "Active"},
      {"measurement": "Activity", "setting": "[20]", "result": "Active"},
      {"measurement": "Activity", "setting": "[21]", "result": "Dose-Dependent Effect"},
      {"measurement": "Activity", "setting": "[22]", "result": "Dose-Dependent Effect"},
      {"measurement": "Activity", "setting": "[23]", "result": "inactive"},
      {"measurement": "IC50", "setting": "[24]", "result": 1910, "unit": "nM"},
      {"measurement": "Activity", "setting": "[25]", "result": "Non-Toxic"},
      {"measurement": "Activity", "setting": "[26]", "result": "Active"},
      {"measurement": "Activity", "setting": "[27]", "result": "Non-Toxic"},
      {"measurement": "Activity", "setting": "[28]", "result": "Non-Toxic"},
      {"measurement": "Activity", "setting": "[29]", "result": "Non-Toxic"},
      {"measurement": "Activity", "setting": "[30]", "result": "inactive"},
      {"measurement": "microsomal CLint at 1 µM", "setting": "[31]", "result": 133, "unit": "µL/min/mg"},
      {"measurement": "Activity", "setting": "[32]", "result": "inactive"},
      {"measurement": "Activity", "setting": "[33]", "result": "Active"},
      {"measurement": "IC50", "setting": "[34]", "result": 4.34, "unit": "µM"},
      {"measurement": "Activity", "setting": "[35]", "result": "inactive"}
    ]}
  ]
}
